Laboratory results as given in ChEMBL document CHEMBL3600333, “Optimization of a Stable Linker Involved DEVD Peptide-Doxorubicin Conjugate That Is Activated upon Radiation-Induced Caspase-3-Mediated Apoptosis” (J Med Chem, 2015).
Active and inactive are the calls of the source. No cut-off for these calls is given here. Numbered stars: 1 amine (or outer) side, 2 acyl side, 3 side chain; on linkers, the order of the positions; unused ones are H or OH. Square brackets hold non-standard residues; d marks the D form. Peptide text beside a SMILES is read from it. * marks the point of attachment. Doxorubicin(3'-N) = COc1cccc2c1C(=O)c1c(O)c3c(c(O)c1C2=O)C[C@@](O)(C(=O)CO)C[C@@H]3O[C@H]1C[C@H](N*)[C@H](O)[C@H](C)O1; Mal(S(CH2)2NH)(CH2)5CO = O=C1CC(SCCN[*:1])C(=O)N1CCCCCC(=O)[*:2]

Key:
MDA-MB-231 [1] = experiment: Cytotoxicity against human MDA-MB-231 cells assessed as cell viability after 48 hrs by MTT assay; assay type: functional, cell-based; conditions: for IC50: MDA-MB-231, 48 h
[2] = Drug uptake in nucleus of human MDA-MB-231 cells at 10 uM after 18 hrs by DAPI staining-based confocal laser scanning microscopic analysis; assay type: ADME, cell-based; conditions: mda-mb-231, 18 h
[3] = Octanol-water partition coefficient, log P of the compound at 100 ug after 3 hrs by shake-flask method; assay type: physicochemical
[4] = Drug uptake in cytoplasm of human MDA-MB-231 cells at 10 uM after 18 hrs by DAPI staining-based confocal laser scanning microscopic analysis; assay type: ADME, cell-based; conditions: mda-mb-231, 18 h
MDA-MB-231 [5] = experiment: Induction of apoptosis in human MDA-MB-231 cells assessed as upregulation of cleaved caspase-3 expression after 48 hrs by Western blot analysis; assay type: functional, cell-based
MDA-MB-231 [6] = experiment: Induction of apoptosis in human MDA-MB-231 cells assessed as downregulation of procaspase-3 expression at 1 to 100 uM after 48 hrs by Western blot analysis; assay type: functional, cell-based
[7] = Retention time of the compound treated with (6S,9S,12S,15S,18S)-1,6-diamino-12-(2-carboxyethyl)-9-(carboxymethyl)-18-(2-(1-(6-((2S,3S,4S,6R)-3-hydroxy-2-methyl-6-((1S,3S)-3,5,12-trihydroxy-3-(2-hydroxyacetyl)-10-methoxy-6,11-dioxo-1,2,3,4,6,11-hexahydrotetracen-1-yloxy)tetrahydro-2H-pyran-4-ylamino)-6-oxohexyl)-2,5-dioxopyrrolidin-3-ylthio)ethylcarbamoyl)-1-imino-15-isopropyl-7,10,13,16-tetraoxo-2,8,11,14,17-pentaazaicosan-20-oic acid at 100 uM by HPLC analysis in presence of recombinant human caspase-3; assay type: physicochemical
[8] = Drug uptake in nucleus of human MDA-MB-231 cells assessed as doxorubicin moiety level at 100 uM using cyanine5.5-labeled compound after 1 hr by DAPI staining-based confocal laser scanning microscopic analysis in presence of recombinant human caspase-3; assay type: ADME, cell-based; conditions: mda-mb-231, 1 h
Mus musculus [9] = experiment: Toxicity in Balb-c/nu mouse allografted with mouse SCC7 cells assessed as mortality at 5 mg/kg molar equivalent of doxorubicin, iv administered daily for 7 days measured until day 14; assay type: organism-based, SCC-7; conditions: in vivo, 168 h
MDA-MB-231 [10] = experiment: Induction of apoptosis in human MDA-MB-231 cells assessed as downregulation of procaspase-3 expression at 1 to 100 uM preincubated with recombinant human caspase-3 measured after 48 hrs by Western blot analysis; assay type: functional, cell-based
MDA-MB-231 [11] = experiment: Induction of apoptosis in human MDA-MB-231 cells assessed as upregulation of cleaved caspase-3 expression up to 100 uM after 48 hrs by Western blot analysis; assay type: functional, cell-based
MDA-MB-231 [12] = experiment: Cytotoxicity against human MDA-MB-231 cells assessed as decrease in cell viability at 5 uM with 5 Gy linear X-ray treatment measured at 48 hrs by MTT assay (reference value: 53%); assay type: functional
MDA-MB-231 [13] = experiment: Induction of apoptosis in human MDA-MB-231 cells assessed as change in cell morphology at 5 uM preincubated for 24 hrs followed by exposure to 5 Gy linear X-ray measured after 6 to 24 hrs by DAPI staining-based fluorescence microscopic analysis; assay type: functional
[14] = Drug uptake in cytoplasm of human MDA-MB-231 cells assessed as DEVD moiety level at 100 uM using cyanine5.5-labeled compound after 1 hr by DAPI staining-based confocal laser scanning microscopic analysis in presence of recombinant human caspase-3; assay type: ADME, cell-based; conditions: mda-mb-231, 1 h
MDA-MB-231 [15] = experiment: Cytotoxicity against human MDA-MB-231 cells assessed as cell viability at 0.1 to 100 uM after 48 hrs by MTT assay in presence of recombinant human caspase-3; assay type: functional, cell-based
Mus musculus [16] = experiment: Toxicity in Balb-c/nu mouse allografted with mouse SCC7 cells assessed as decrease in body weight at 5 mg/kg molar equivalent of doxorubicin, iv administered daily for 7 days with 10 Gy X-ray treatment on first day of drug administration measured until day 14; assay type: organism-based, SCC-7; conditions: in vivo, 168 h
[17] = Retention time of the compound at 100 uM after 60 mins by HPLC analysis in absence of recombinant human caspase-3; assay type: physicochemical; conditions: 1 h
MDA-MB-231 [18] = experiment: Induction of apoptosis in human MDA-MB-231 cells assessed as upregulation of cleaved caspase-3 expression at 1 to 100 uM pretreated with X-ray measured after 24 to 72 hrs by Western blot analysis; assay type: functional, cell-based
[19] = Prodrug conversion assessed as 6-(3-(2-aminoethylthio)-2,5-dioxopyrrolidin-1-yl)-N-((2S,3S,4S,6R)-3-hydroxy-2-methyl-6-((1S,3S)-3,5,12-trihydroxy-3-(2-hydroxyacetyl)-10-methoxy-6,11-dioxo-1,2,3,4,6,11-hexahydrotetracen-1-yloxy)tetrahydro-2H-pyran-4-yl)hexanamide formation at 100 uM after 60 mins by HPLC analysis in absence of recombinant human caspase-3; assay type: physicochemical; conditions: 1 h
MDA-MB-231 [20] = experiment: Cytotoxicity against human MDA-MB-231 cells assessed as cell viability up to 10 uM after 48 hrs by MTT assay in absence of recombinant human caspase-3; assay type: functional, cell-based
Caspase-3 = target: T1, Caspase-3 (Homo sapiens, UniProt P42574); experiment: Prodrug conversion assessed as recombinant human caspase-3-mediated compound 8 formation at 100 uM after 60 mins by HPLC analysis in presence of caspase-3 inhibitor Ac-DEVD-CHO; assay type: ADME; conditions: 1 h
T1 sequence (P42574 whole entry): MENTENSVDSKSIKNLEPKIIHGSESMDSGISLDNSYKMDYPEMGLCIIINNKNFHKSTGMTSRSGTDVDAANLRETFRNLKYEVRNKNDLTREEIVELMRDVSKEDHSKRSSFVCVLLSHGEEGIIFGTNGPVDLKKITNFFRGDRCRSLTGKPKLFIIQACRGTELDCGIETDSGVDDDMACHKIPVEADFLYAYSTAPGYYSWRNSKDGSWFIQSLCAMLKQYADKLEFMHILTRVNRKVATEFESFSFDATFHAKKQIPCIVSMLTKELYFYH

[21] = Drug uptake in nucleus of human MDA-MB-231 cells assessed as doxorubicin moiety level at 5 uM preincubated for 24 hrs followed by exposure to 5 Gy linear X-ray measured at 24 hrs by DAPI staining-based fluorescence microscopic analysis; assay type: ADME, cell-based; conditions: mda-mb-231, 24 h
MDA-MB-231 [22] = experiment: Induction of apoptosis in human MDA-MB-231 cells assessed as upregulation of cleaved caspase-3 expression preincubated with recombinant human caspase-3 measured after 48 hrs by Western blot analysis; assay type: functional, cell-based
[23] = Antitumor activity against mouse SCC7 cells allografted in Balb-c/nu mouse assessed as tumor growth inhibition at 5 mg/kg molar equivalent of doxorubicin, iv administered daily for 7 days without X-ray treatment relative to control; assay type: functional, SCC-7
MDA-MB-231 [24] = experiment: Cytotoxicity against human MDA-MB-231 cells assessed as cell viability at 100 uM after 48 hrs by MTT assay in absence of recombinant human caspase-3; assay type: functional, cell-based
[25] = Antitumor activity against mouse SCC7 cells allografted in Balb-c/nu mouse assessed as tumor growth inhibition at 5 mg/kg molar equivalent of doxorubicin, iv administered daily for 7 days with 10 Gy X-ray treatment on first day of drug administration (reference value: 54%); assay type: functional, SCC-7
MDA-MB-231 [26] = experiment: Cytotoxicity against human MDA-MB-231 cells assessed as decrease in cell viability at 5 uM with 5 Gy linear X-ray treatment after 24 hrs by MTT assay; assay type: functional, cell-based
[27] = Stability of the compound at 100 uM after 60 mins by HPLC analysis in absence of recombinant human caspase-3; assay type: physicochemical; conditions: 1 h
Mus musculus [28] = experiment: Toxicity in Balb-c/nu mouse allografted with mouse SCC7 cells assessed as decrease in body weight at 5 mg/kg molar equivalent of doxorubicin, iv administered daily for 7 days without X-ray treatment measured until day 14; assay type: organism-based, SCC-7; conditions: in vivo, 168 h
[29] = Drug uptake in nucleus of human MDA-MB-231 cells assessed as doxorubicin moiety level at 5 uM preincubated for 24 hrs followed by exposure to 5 Gy linear X-ray measured at 6 hrs by DAPI staining-based fluorescence microscopic analysis; assay type: ADME, cell-based; conditions: mda-mb-231, 6 h
Mus musculus [30] = experiment: Toxicity in Balb-c/nu mouse allografted with mouse SCC7 cells assessed as mortality at 5 mg/kg, iv administered daily measured within 6 days; assay type: organism-based, SCC-7; conditions: in vivo, 144 h

With `COc1cccc2c1C(=O)c1c(O)c3c(c(O)c1C2=O)C[C@@](O)(C(=O)CO)C[C@@H]3O[C@H]1C[C@H](NC(=O)C2CCC(CN3C(=O)CC(SCCN)C3=O)CC2)[C@H](O)[C@H](C)O1` (some centres not stated) the Activity (MDA-MB-231 [1]) was “Dose-dependent effect”, the IC50 (MDA-MB-231 [1]) was greater than 100 µM and the Drug uptake [2] was “Active”. The logP at 3 h [3] was -0.022 and the Drug uptake [4] was “Active”.

In the case of `COc1cccc2c1C(=O)c1c(O)c3c(c(O)c1C2=O)C[C@@](O)(C(=O)CO)C[C@@H]3O[C@H]1C[C@H](NC(=O)CCCCCN2C(=O)CC(SCCN)C2=O)[C@H](O)[C@H](C)O1` (some centres not stated), the IC50 (MDA-MB-231 [1]) is reported as 4.6 µM, the Activity (MDA-MB-231 [5]) is reported as “Dose-dependent effect” and the Activity (MDA-MB-231 [6]) is reported as “Active”. The Drug uptake [2] was “Active”, the Retention_time [7] was 20.6 min and the logP at 3 h [3] was -0.383.

For `COc1cccc2c1C(=O)c1c(O)c3c(c(O)c1C2=O)C[C@@](O)(C(=O)CO)C[C@@H]3O[C@H]1C[C@H](NC(=O)c2cccc(N3C(=O)CC(SCCN)C3=O)c2)[C@H](O)[C@H](C)O1` (some centres not stated), the IC50 (MDA-MB-231 [1]) was greater than 100 µM, the Drug uptake [2] was “Active” and the logP at 3 h [3] was -0.121. For the same compound, the Drug uptake [4] was “Active”.

With `COc1cccc2c1C(=O)c1c(O)c3c(c(O)c1C2=O)C[C@@](O)(C(=O)CO)C[C@@H]3O[C@H]1C[C@H](NC(=O)CCCc2ccc(N3C(=O)CC(SCCN)C3=O)cc2)[C@H](O)[C@H](C)O1` (some centres not stated) the IC50 (MDA-MB-231 [1]) was greater than 100 µM, the Drug uptake [2] was “Active” and the logP at 3 h [3] was 0.313. For the same compound, the Drug uptake [4] was “Active”.

In the case of `COc1cccc2c1C(=O)c1c(O)c3c(c(O)c1C2=O)C[C@@](O)(C(=O)CO)C[C@@H]3O[C@H]1C[C@H](NC(=O)CN2C(=O)CC(SCCN)C2=O)[C@H](O)[C@H](C)O1` (some centres not stated), the IC50 (MDA-MB-231 [1]) is reported as greater than 100 µM, the Drug uptake [2] is reported as “Active” and the logP at 3 h [3] is reported as -1.04. The Drug uptake [4] was “Active”.

In the case of `COc1cccc2c1C(=O)c1c(O)c3c(c(O)c1C2=O)C[C@@](O)(C(=O)CO)C[C@@H]3O[C@H]1C[C@H](NC(=O)CCCCCN2C(=O)CC(SCCNC(=O)[C@H](CC(=O)O)NC(=O)[C@@H](NC(=O)[C@H](CCC(=O)O)NC(=O)[C@H](CC(=O)O)NC(=O)[C@@H](N)CCCNC(=N)N)C(C)C)C2=O)[C@H](O)[C@H](C)O1` (some centres not stated) (H-RDEVD[Mal(S(CH2)2NH)(CH2)5CO]-{Doxorubicin(3'-N)}), the Drug uptake [8] is reported as “Active”, the Activity (Mus musculus [9]) is reported as “Non-toxic” and the Activity (MDA-MB-231 [10]) is reported as “Active”. For the same compound, the Activity (MDA-MB-231 [11]) was “inactive”, the Activity (MDA-MB-231 [12]) was 75% and the Activity (MDA-MB-231 [13]) was “Active”. For the same compound, the Drug uptake [14] was “Active”, the Activity (MDA-MB-231 [15]) was “Active” and the Activity (Mus musculus [16]) was “Non-toxic”. For the same compound, the Retention_time [17] was 21.4 min, the Activity (MDA-MB-231 [18]) was “Active” and the Drug metabolism [19] was “metabolite_notdetected”. For the same compound, the Drug uptake [2] was “Active”, the Activity (MDA-MB-231 [20]) was “inactive” and the Drug metabolism (Caspase-3) was “metabolite_notdetected”. For the same compound, the Drug uptake [21] was “Active”, the Activity (MDA-MB-231 [22]) was “Dose-dependent effect” and the TGI [23] was 15%. The Activity (MDA-MB-231 [24]) was “Active”, the TGI [25] was 79% and the Activity (MDA-MB-231 [26]) was “inactive”. The Stability [27] was “Unstable”, the Activity (Mus musculus [28]) was “Non-toxic” and the Drug uptake [4] was “Active”. For the same compound, the Drug uptake [29] was “Not Active”.

In the case of `COc1cccc2c1C(=O)c1c(O)c3c(c(O)c1C2=O)C[C@@](O)(C(=O)CO)C[C@@H]3O[C@H]1CC(NC(=O)C2CCC(CN3C(=O)CC(SC[C@H](N)C(=O)O)C3=O)CC2)[C@H](O)[C@H](C)O1` (single isomer, unassigned), the Drug uptake [2] is reported as “Not Active” and the Drug uptake [4] is reported as “Active”.

With `COc1cccc2c1C(=O)c1c(O)c3c(c(O)c1C2=O)C[C@@](O)(C(=O)CO)C[C@@H]3O[C@H]1C[C@H](N)[C@H](O)[C@H](C)O1` [DOXORUBICIN] the Activity (Mus musculus [30]) was “Toxic” and the Drug uptake [2] was “Active”.
